SMILES strings stand for the structures. In brackets after ≈: the same amount, converted by molar mass.

Series [1] concerns Influenza B. Kind of series: microbe, parasite or virus in culture. The format is cell-based.
Series [2] concerns Influenza A0. Kind of series: microbe, parasite or virus in culture. The format is cell-based. The conditions noted are these: Virus A = Influenza A0, MDCK, Vero and HEL cells.
In series [3] the test system is influenza A0 virus. Put plainly: Protective action against the death of mice infected with influenza A0 virus. The format is in vivo, ICR female mice. The conditions noted are these: for Survival rate: twice a day for 14 days, survivors at 15th day. From the text:
Experimental Example 2 Protective Action against the Death of Mice. Infected with Influenza A0 Virus,
After the influenza A0 virus was inoculated to groups each -consisting of ten ICR female mice (16 - 18 g) intranasally under light anesthesia with ether, compound of the invention was given orally or intraperitoneally as multiple doses of twice a day starting one hour after infection and continued for 14 days. The result of the treatment was shown as the increase in percentage of survivors at 15th day.

The nature of series [4]: Physicochemical properties (qualitative solubility). The conditions noted are these: qualitative solubility in solvents.
Series [5] is described as follows: Acute toxicity in mice. Also on record: species or system ddy male mice. The conditions noted are these: mouse, in vivo, suspended in 5% Arabic gum solution, mortality observed for 7 days. The method, then:
Experimental Example 7: Acute Toxicity in Mice
Each compound of the invention was suspended in 5% Arabic gum solution and given orally (p.o.) or intraperitoneally (i.p.) to groups of ten ddy male mice weighed from 24 to 26 g at the dosage volume of 10 ml/kg. […] LD50 was determined according to the method of Wilcoxon and Litchfield.

The test system of series [6] is Parainfluenza Type 3. Put plainly: microbe, parasite or virus in culture. The conditions noted are these: Virus E = Parainfluenza Type 3. The format is cell-based.
The subject of series [7] is Rhino. Kind of series: microbe, parasite or virus in culture. The format is cell-based.
The subject of series [8] is Coxsackie Type B5. Put plainly: microbe, parasite or virus in culture. The format is cell-based. The conditions noted are these: Virus G = Coxsackie Type B5.
In series [9] the test system is Influenza A1. Put plainly: microbe, parasite or virus in culture. The format is cell-based.
The subject of series [10] is ECHO. Put plainly: microbe, parasite or virus in culture. The format is cell-based.
In series [11] the test system is influenza virus B/GL. The format is in vivo, ICR female mice. The conditions noted are these: result in words, oral.
Where [12] appears, read: ip, Intra-peritoneal administration.

A word on the LD50: it is the dose expected to kill half of the subjects tested. Low readings indicate greater toxicity, high ones lower toxicity. Consider `CN(C)S(=O)(=O)c1cc(C(=O)O)ccc1Cl` [Compound 3, 4-chloro-3-dimethyl-aminosulfonylbenzoic acid], for which the MIC in [1] was 300 µg/mL (≈ 1140 µM); in [2], 30 µg/mL (≈ 114 µM); in series [6] it was 300 µg/mL (≈ 1140 µM); in [7], 300 µg/mL (≈ 1140 µM); in series [8] it was 300 µg/mL (≈ 1140 µM); in series [9], 300 µg/mL (≈ 1140 µM). The MIC in series [10] was 300 µg/mL (≈ 1140 µM). Further, the Survival rate in series [3] (intraperitoneal, 100 mg/kg) was 40%; in [3] (oral, 300 mg/kg), 50%. Also, in [4], the “Property (solubility)” value is reported as “white crystalline powder; insoluble in benzene, hexane; soluble in hot water, methanol”. The median lethal dose (LD50) at 168 h in series [5] (setting [12]) was greater than 1000 mg/kg; in [5] (Oral administration), greater than 3000 mg/kg.

In the case of `CCNS(=O)(=O)c1cc(C(=O)O)ccc1Cl` [Compound 2, 4-chloro-3-ethylamino-sulfonylbenzoic acid], the MIC stood at 300 µg/mL (≈ 1140 µM) in series [1]; 30 µg/mL (≈ 114 µM) in series [2]; 300 µg/mL (≈ 1140 µM) in series [6]; 300 µg/mL (≈ 1140 µM) in series [7]; 300 µg/mL (≈ 1140 µM) in series [8]; 300 µg/mL (≈ 1140 µM) in series [9]. The compound further came in with an MIC in series [10] of 300 µg/mL (≈ 1140 µM). Also, the Survival rate in series [3] (intraperitoneal, 100 mg/kg) is 40%; in series [3] (oral, 300 mg/kg) it was 50%. In addition, in series [4], the “Property (solubility)” value is listed as “white crystalline powder; insoluble in benzene, hexane; soluble in hot water, methanol”. Besides, the median lethal dose (LD50) at 168 h was greater than 1000 mg/kg in series [5] (setting [12]) and greater than 3000 mg/kg in series [5] (Oral administration).

In the case of `CCCCOC(=O)c1ccc(Br)c(S(N)(=O)=O)c1` [Compound 10, 3-aminosulfonyl-4-bromo-n-butylbenzoate], the 50% lethal dose (LD50) at 168 h in series [5] (setting [12]) was greater than 1000 mg/kg; in [5] (Oral administration), greater than 3000 mg/kg. For the same compound, in [11], the “survival rates of the treated groups as compared with that of the control” value is “extremely excellent activity”.

With `CC(C)OC(=O)c1ccc(Br)c(S(N)(=O)=O)c1` [Compound 9, 3-aminosulfonyl-4-bromo-isopropylbenzoate], the median lethal dose (LD50) at 168 h in [5] (setting [12]) is greater than 1000 mg/kg; in series [5] (Oral administration) it was greater than 3000 mg/kg.

Turning to `CC(C)NS(=O)(=O)c1cc(C(=O)O)ccc1Cl` [Compound 4, 4-chloro-3-isopropyl-aminoslfonylbenzoic acid], the MIC in series [1] turned out to be 300 µg/mL (≈ 1080 µM); in series [2], 30 µg/mL (≈ 108 µM); in series [6] it was 300 µg/mL (≈ 1080 µM); in series [7], 300 µg/mL (≈ 1080 µM); in [8], 300 µg/mL (≈ 1080 µM); in series [9] it was 100 µg/mL (≈ 360 µM). The compound further came in with an MIC in series [10] of 300 µg/mL (≈ 1080 µM). The Survival rate in [3] (intraperitoneal, 100 mg/kg) came to 40%; in series [3] (oral, 300 mg/kg) it was 40%. Besides, in series [4], the “Property (solubility)” value is listed as “white crystalline powder; insoluble in benzene, hexane; soluble in hot water, methanol”. In addition, the LD50 at 168 h in [5] (setting [12]) is greater than 1000 mg/kg; in [5] (Oral administration), greater than 3000 mg/kg.

Turning to `CNS(=O)(=O)c1cc(C(=O)O)ccc1Cl` [Compound 1, 4-chloro-3-methylamino-sulfonylbenzoic acid], the MIC was found to be 300 µg/mL (≈ 1200 µM) in series [1]; 30 µg/mL (≈ 120 µM) in [2]; 300 µg/mL (≈ 1200 µM) in series [6]; 300 µg/mL (≈ 1200 µM) in series [7]; 100 µg/mL (≈ 401 µM) in [8]; 300 µg/mL (≈ 1200 µM) in series [9]. This compound also returned an MIC in [10] of 300 µg/mL (≈ 1200 µM). Besides, the Survival rate in series [3] (intraperitoneal, 100 mg/kg) was 40%; in [3] (oral, 300 mg/kg) it was 50%. The “Property (solubility)” value in [4] is listed as “white crystalline powder; insoluble in benzene, hexane; soluble in hot water, methanol”. Besides, the LD50 at 168 h is greater than 1000 mg/kg in [5] (setting [12]) and greater than 3000 mg/kg in series [5] (Oral administration).

On to `O=C(O)c1ccc(Cl)c(S(=O)(=O)Nc2ccccc2)c1` [Compound 5, 3-anilinosulfonyl-4-chlorobenzoic acid], for which the MIC in [1] turned out to be 300 µg/mL (≈ 962 µM); in series [2] it was 30 µg/mL (≈ 96.2 µM); in series [6], 300 µg/mL (≈ 962 µM); in [7], 300 µg/mL (≈ 962 µM); in series [8], 100 µg/mL (≈ 321 µM); in series [9], 300 µg/mL (≈ 962 µM). This compound returned an MIC in series [10] of 300 µg/mL (≈ 962 µM). In addition, the Survival rate in series [3] (intraperitoneal, 100 mg/kg) is 40%; in series [3] (oral, 300 mg/kg) it was 40%. In series [4], the “Property (solubility)” value was “white crystalline powder; insoluble in benzene, hexane; soluble in hot water, methanol”. For the same compound, the values for the LD50 at 168 h in [5] (setting [12]) and in series [5] (Oral administration) were 968 mg/kg and greater than 3000 mg/kg, respectively.

Regarding `NS(=O)(=O)c1cc(C(=O)O)c(Cl)cc1Cl` [Compound 7, 5-aminosulfonyl-2,4-dichlorobenzoic acid], the MIC in series [1] is 100 µg/mL (≈ 370 µM); in [2], 10 µg/mL (≈ 37 µM); in series [6] it was 100 µg/mL (≈ 370 µM); in series [7], 100 µg/mL (≈ 370 µM); in series [8], 100 µg/mL (≈ 370 µM); in [9], 300 µg/mL (≈ 1110 µM). Moreover, in series [10], the MIC came to 100 µg/mL (≈ 370 µM). Further, the Survival rate in series [3] (intraperitoneal, 10 mg/kg) was 40%; in series [3] (intraperitoneal, 30 mg/kg), 50%; in [3] (oral, 30 mg/kg), 40%; in series [3] (oral, 100 mg/kg), 60%. In addition, in series [3] (result in words, oral or intraperitoneal), the “protective action against death due to the infection” value is on record as “extremely excellent activity”. Further, the “Property (solubility)” value in series [4] is reported as “white crystalline powder; insoluble in benzene, hexane; soluble in hot water, methanol”. Besides, the LD50 at 168 h in series [5] (setting [12]) was greater than 1000 mg/kg; in series [5] (Oral administration), greater than 3000 mg/kg.

On to `COC(=O)c1ccc(F)c(S(N)(=O)=O)c1` [Compound 8, 3-aminosulfonyl-4-fluoromethylbenzoate], for which the values for the 50% lethal dose (LD50) at 168 h in series [5] (setting [12]) and in series [5] (Oral administration) were greater than 1000 mg/kg and greater than 3000 mg/kg, respectively.

For the compound `O=C(O)c1ccc(Cl)c(S(=O)(=O)N2CCOCC2)c1` [Compound 6, 4-chloro-3-morpholino-sulfonylbenzoic acid], the MIC in [1] was found to be 300 µg/mL (≈ 981 µM); in series [2], 30 µg/mL (≈ 98.1 µM); in series [6], 300 µg/mL (≈ 981 µM); in series [7], 300 µg/mL (≈ 981 µM); in [8] it was 300 µg/mL (≈ 981 µM); in series [9], 300 µg/mL (≈ 981 µM). The compound also returned an MIC in series [10] of 100 µg/mL (≈ 327 µM). Besides, the Survival rate turned out to be 50% in [3] (intraperitoneal, 100 mg/kg) and 50% in series [3] (oral, 300 mg/kg). For the same compound, the “Property (solubility)” value in [4] is reported as “white crystalline powder; insoluble in benzene, hexane; soluble in hot water, methanol”. The LD50 at 168 h in [5] (setting [12]) was greater than 1000 mg/kg; in series [5] (Oral administration), greater than 3000 mg/kg.

As to `C=CCOC(=O)c1cc(S(N)(=O)=O)c(Cl)cc1Cl` [Compound 11, 5-aminosulfonyl-2,4-dichloro-allylbenzoate], the results for the LD50 at 168 h in series [5] (setting [12]) and in series [5] (Oral administration) were greater than 1000 mg/kg and greater than 3000 mg/kg, respectively.

The values above are taken from patent publication EP0132540A1 (priority 1981, dated 1983).
